Measured values reported in patent US5115017A, “Polyvinyl oleate as a fat replacement” (Nabisco Brands, Inc., priority 1989, dated 1992).

Molecular target: T1, porcine pancreatic lipase (Sus scrofa, UniProt P00591)
T1 construct: purchased U.S. Biochemical Corporation
T1 sequence (P00591 1-450): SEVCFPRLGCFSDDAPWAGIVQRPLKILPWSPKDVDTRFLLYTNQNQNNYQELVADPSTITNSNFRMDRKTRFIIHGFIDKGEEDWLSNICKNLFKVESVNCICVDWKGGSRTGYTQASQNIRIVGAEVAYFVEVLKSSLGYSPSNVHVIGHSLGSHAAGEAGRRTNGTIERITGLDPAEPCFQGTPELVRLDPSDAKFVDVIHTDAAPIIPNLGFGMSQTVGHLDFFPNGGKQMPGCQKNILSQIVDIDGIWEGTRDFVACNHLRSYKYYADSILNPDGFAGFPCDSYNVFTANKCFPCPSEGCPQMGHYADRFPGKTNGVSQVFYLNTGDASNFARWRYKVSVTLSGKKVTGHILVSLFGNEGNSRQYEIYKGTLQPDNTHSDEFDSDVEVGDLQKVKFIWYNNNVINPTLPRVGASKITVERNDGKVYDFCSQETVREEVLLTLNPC
Experiment: in vitro digestibility (lipase hydrolysis) screening test
Assay type: biochemical
Details: in 10 minutes with this enzyme system, 37° C., pH 7.1 phosphate buffer; triglyceride control
Description: This example outlines the procedure for estimating the in vitro digestibility of the polyvinyl esters of this invention.
Buffer: A pH 7.1 phosphate buffer is prepared by dissolving 6.8 g. KH2 PO4 in 1 L. of millipore filtered water (to yield 0.05M phosphate). Fifty mg. Ca(NO3)2 and 5.0 g. cholic acid (Na salt, an ox bile isolate from Sigma) are added to give 300 microM Ca^++ and 0.5% cholic acid in 0.05M phosphate. The pH is adjusted to approximately 7.1 with solid NaOH. Several drops of Baker "Resi-analyzed" toluene are added to prevent bacterial growth during storage at 3-5° C.
Lipase: About 15 mg./mL commercial porcine pancreatic lipase from U.S. Biochemical Corporation is dissolved in buffer.
(The proper concentration may be approximated by doubling the molecular weight of the lipid in question, dividing by 10, and diluting to the mark; this yields about 200 nanomoles per microliter.) This preparation affords the substrate to be used in the hydrolysis reactions. Fatty acids and glyceride standards from Nu Chek or Sigma are prepared for elution on TLC plates (prewashed with 1:1 chloroform/methanol) by diluting the substrate solution with 10:1 toluene (1 part substrate plus 9 parts toluene) in septum vials. […]

hydrolysis by pancreatic lipase (in vitro digestibility): substantially hydrolyzed
SMILES: CCCCCCCC/C=C\CCCCCCCC(=O)OCC(COC(=O)CCCCCCC/C=C\CCCCCCCC)OC(=O)CCCCCCC/C=C\CCCCCCCC [triolein]
